Results taken from ChEMBL document CHEMBL5120804, “Total Syntheses and Anti-inflammatory Evaluations of Pongamosides A-C, Natural Furanoflavonoid Glucosides from Fruit of Pongamia pinnata (L.) Pierre” (J Nat Prod, 2022).
The source made the active and inactive calls. The calls are words filed in the database; no cut-off is given here.

Columns and labels:
[1] = test system: RAW264.7; experiment: Antiinflammatory activity in mouse RAW264.7 assessed as inhibition of LPS-induced NO production at 25 uM pretreated for 2 hrs followed by LPS addition and measured after 24 hrs; format: functional, cell-based; conditions: time 26.0 hrs
[2] = test system: RAW264.7; experiment: Antiinflammatory activity in mouse RAW264.7 assessed as inhibition of LPS-induced NO production pretreated for 2 hrs followed by LPS addition and measured after 24 hrs; format: functional, cell-based

| Structure (SMILES) | Activity [1] | IC50 [2] |
| --- | --- | --- |
| COc1cc2c(=O)cc(-c3cccc(O)c3)oc2c2ccoc12 | Active |  |
| O=c1cc(-c2cccc(O)c2)oc2c1ccc1occc12 | Active | 27.3 µM |
| COc1c(-c2ccccc2)oc2c(cc(O[C@@H]3O[C@H](CO)[C@@H](O)[C@H](O)[C@H]3O)c3occc32)c1=O | Active |  |
| COc1c(-c2ccccc2)oc2c(cc(O)c3occc32)c1=O | Active | 22.2 µM |
